{"source": "patent US20230212131A1", "about": "“COLLAGEN 1 TRANSLATION INHIBITORS AND METHODS OF USE THEREOF” (Anima Biotech Inc., priority 2020, published 2023)"}
{"system": "collagen 1 (COL1)", "assay": "WI-38 collagen 1 inhibition assay", "assay_type": "cell-based, human", "conditions": "Cellular EC50, WI-38 cells; values are classes of LogEC50", "from_the_text": "All compounds were profiled for cellular potency in inhibition of collagen 1 (COL1) protein translation using a phenotypic screening platform.\nWI-38 cells (ATCC® CCL-75™) were maintained in MEM EAGLE (NEAA) W. GLUTAMIN (Biological Industries, Cat. 06-1040-15-1A) containing 10% fetal bovine serum (FBS) and 1% Penicillin-Streptomycin Solution. To synchronize the cells (cell cycle synchronization) prior to induction of collagen synthesis, the cells were starved using DMEM-low glucose supplemented with 0.25% FBS for two hours and then without FBS for 24 hours. To induce collagen synthesis, the cells were treated with a collagen induction cocktail for the indicated time. Compounds were added with induction.\nCells in 96-well or 384-well plates were fixed for 20 min in 4% paraformaldehyde (PFA, ENCO, Cat. sc-281692). Following two washes with 1×PBS, cells were treated with hydrogen peroxide (Acros, Cat: 7722-84-1) for 10 minutes and then washed twice with 1×PBS. Cells were then incubated over-night at 4° C. with Anti-Collagen I (Sigma-Aldrich, Cat: C 2456) antibody and washed three times with 1×PBS. Cells were then incubated with a suitable secondary fluorescently-tagged antibody and nuclei stained with DAPI, for 1 hour, and then washed 3 times with 1×PBS.\nCell images were taken with Operetta (Perkin Elmer, USA), a wide-field fluorescence microscope at 20× magnification. After acquisition, the images were transferred to Columbus software (Perkin-Elmer) for image analysis. In Columbus, cells were identified by their nucleus, using the “Find Nuceli” module and cytoplasm was detected based on the secondary antibody channel. Subsequently, the fluorescent signal was enumerated in the identified cell region. Data was exported to a data analysis and visualization software, Tibco Spotfire, USA."}
{"compound": "O=C(Nc1nc(-c2ccccn2)cs1)c1ccc(N2CCOCC2)cc1", "note": "[Compound 370, 4-morpholino-N-[4-(2-pyridyl)thiazol-2-yl]benzamide]", "COL1 Efficacy (LogEC50)": "+ (+: >−5)"}
{"compound": "O=C(Nc1nc(-c2ccccc2Cl)cs1)C1CN(C2CCOCC2)C1", "note": "[compound 363, N-[4-(2-chlorophenyl)thiazol-2-yl]-1-tetrahydropyran-4-yl-azetidine-3-carboxamide]", "COL1 Efficacy (LogEC50)": "++ (++: −5 to −6)"}
{"compound": "CN1CCN(c2ccc(C(=O)Nc3nc(-c4ccccc4Cl)cs3)cc2)CC1", "note": "[compound 322, N-[4-(2-chlorophenyl)thiazol-2-yl]-4-(4-methylpiperazin-1-yl)benzamide]", "COL1 Efficacy (LogEC50)": "+++ (+++: <−6)"}
{"compound": "COCc1ccccc1-c1csc(NC(=O)c2ccc(N3CCN(S(C)(=O)=O)CC3)cn2)n1", "note": "[Compound 447, N-(4-(2-(methoxymethyl)phenyl)thiazol-2-yl)-5-(4-(methylsulfonyl)piperazin-1-yl)picolinamide]", "COL1 Efficacy (LogEC50)": "+++ (+++: <−6)"}
{"compound": "COc1ncccc1-c1csc(NC(=O)c2ccc(C)nc2)n1", "note": "[Compound 319, N-[4-(2-methoxy-3-pyridyl)thiazol-2-yl]-6-methyl-pyridine-3-carboxamide]", "COL1 Efficacy (LogEC50)": "++ (++: −5 to −6)"}
{"compound": "COc1ccc(C(=O)Nc2nc(-c3ccccc3F)cs2)cc1", "note": "[Compound 336, N-[4-(2-fluorophenyl)thiazol-2-yl]-4-methoxy-benzamide]", "COL1 Efficacy (LogEC50)": "++ (++: −5 to −6)"}
{"compound": "O=C(Nc1nc(-c2ccccc2Cl)cs1)C1CCC(N2CCOCC2)CC1", "note": "(centres unmarked) [compound 431]", "COL1 Efficacy (LogEC50)": "− (−: inactive)"}
{"compound": "O=C(Nc1nc(-c2ccc(Cl)cc2Cl)cs1)c1ccccc1", "note": "[Compound 302, N-(4-(2,4-dichlorophenyl)thiazol-2-yl)benzamide]", "COL1 Efficacy (LogEC50)": "++ (++: −5 to −6)"}
{"compound": "O=C(Nc1nc(-c2ccccc2Cl)cs1)c1ccc(N2CCOCC2)nc1", "note": "[compound 346, N-[4-(2-chlorophenyl)thiazol-2-yl]-6-morpholino-pyridine-3-carboxamide]", "COL1 Efficacy (LogEC50)": "+++ (+++: <−6)"}
{"compound": "CN1CCC2(CCN(c3ccc(C(=O)Nc4nc(-c5ccccc5Cl)cs4)nc3)CC2)C1=O", "note": "[compound 452, N-(4-(2-chlorophenyl)thiazol-2-yl)-5-(2-methyl-1-oxo-2,8-diazaspiro[4.5]decan-8-yl)picolinamide]", "COL1 Efficacy (LogEC50)": "+++ (+++: <−6)"}
{"compound": "CC(=O)N1CCN(c2ccc(C(=O)Nc3nc(-c4ccccc4Cl)cs3)nc2)CC1", "note": "[compound 442, 5-(4-acetylpiperazin-1-yl)-N-(4-(2-chlorophenyl)thiazol-2-yl)picolinamide]", "COL1 Efficacy (LogEC50)": "+++ (+++: <−6)"}
{"compound": "COCc1ccccc1-c1csc(NC(=O)c2ccc(N3CCC(O)CC3)cn2)n1", "note": "[Compound 468, 5-(4-hydroxypiperidin-1-yl)-N-(4-(2-(methoxymethyl)phenyl)thiazol-2-yl)picolinamide]", "COL1 Efficacy (LogEC50)": "+++ (+++: <−6)"}
{"compound": "CN1CCCC(C(=O)N2CCN(c3ccc(C(=O)Nc4nc(-c5ccccc5Cl)cs4)nc3)CC2)C1", "note": "(centres unmarked) [Compound 467, N-(4-(2-chlorophenyl)thiazol-2-yl)-5-(4-(1-methylpiperidine-3-carbonyl)piperazin-1-yl)picolinamide hemiformate]", "COL1 Efficacy (LogEC50)": "+++ (+++: <−6)"}
{"compound": "COc1ccc(C(=O)Nc2nc(-c3cc(Cl)cc(Cl)c3)cs2)cc1", "note": "[Compound 315, N-(4-(3,5-dichlorophenyl)thiazol-2-yl)-4-methoxybenzamide]", "COL1 Efficacy (LogEC50)": "+++ (+++: <−6)"}
{"compound": "Cn1cc(-c2csc(NC(=O)c3ccc(N4CCOCC4)cc3)n2)cn1", "note": "[compound 354, N-[4-(1-methylpyrazol-4-yl)thiazol-2-yl]-4-morpholino-benzamide]", "COL1 Efficacy (LogEC50)": "++ (++: −5 to −6)"}
{"compound": "O=C(Nc1nc(-c2ccccc2Cl)cs1)c1ccc(N2CCC(CCO)CC2)cn1", "note": "[compound 478, N-(4-(2-chlorophenyl)thiazol-2-yl)-5-(4-(2-hydroxyethyl)piperidin-1-yl)picolinamide]", "COL1 Efficacy (LogEC50)": "+++ (+++: <−6)"}
{"compound": "COc1ccc(C(=O)Nc2nc(-c3cccnc3OC)cs2)cc1", "note": "[Compound 332, 4-methoxy-N-[4-(2-methoxy-3-pyridyl)thiazol-2-yl]benzamide]", "COL1 Efficacy (LogEC50)": "++ (++: −5 to −6)"}
